# Assay: Human HepG2 cell viability assay in 384 well format
# Format: toxicity, cell-based
# Design: dose 125 nL, time 70.5 hour; cytotoxicity at 70.5 h: concentration not given beside the values
# Details: HepG2 cells, read-out: Inhibition
row,SMILES,cytotoxicity at 70.5 h [%]
1,Cc1ccc(CN(Cc2ccccn2)C(=O)C2CCCCCN2C)s1 (centres undefined),27.3
2,CN1CCC(Cc2nc(-c3ccnn3C)n(Cc3ccccc3)n2)CC1,12.7
3,O=C(Cc1ccncc1)N1C[C@@H]2CC[C@H](C1)N(Cc1ccccc1)C2=O,-3.45
4,O=C(c1ccc(C2CCCN2)s1)N1CCN2CCC1CC2 (centres undefined),-5.88
5,CCN(Cc1noc(C)n1)C(=O)CCn1c(C)cc2ccccc21,-6.29
6,O=C(CCCN1CCCCC1)N1CCC(c2nnc[nH]2)CC1,-4.84
7,Cc1nccn1CCN1C(=O)CC2(CCCC2)CC1=O,-9
8,Cc1ccnc(NCCNC(=O)Cc2c(C)[nH]c3c(C)ccc(C)c23)c1,34.5
9,CN(C)CC1(O)CCCN(c2ccnc3c(C(F)(F)F)cccc23)C1 (centres undefined),-5.96
10,COc1nc2c(cc1C(=O)NCCc1nc3c(s1)CCC3)CCC2,3.25
11,CC(C)N1CCC(C(=O)N2CCCN(c3ccccc3)CC2)CC1,-8.78
12,CC(=O)N1CCCn2nc(CNC(=O)N3CCCCC3)cc2C1,19.2
13,CCCc1cnc(C)nc1NCCc1nc(C)cc(=O)[nH]1,-9.64
14,Cc1cc2cccc(C(=O)N3CC[C@](C)(O)[C@H](C)C3)c2o1,14.5
15,CCc1cc(-c2nccn2-c2ccccc2CN2CCOCC2)on1,16.1
16,CC(=O)N1CCc2c(nc(N(C)C)nc2N(C)CCO)C1,-2.49
17,CNc1nc(C(=O)N2CCC3(CCCN(C)C3=O)C2)cs1 (centres undefined),-4.39
18,O[C@@]1(Cn2cnc(Cl)c2Cl)CCCN2CCCC[C@@H]21,-12.5
19,COCCOCC(=O)N1CCCC(c2ncc[nH]2)C1 (centres undefined),-16.6
20,CC(C)Oc1cccc(F)c1C(C(=O)O)N1CCCC1 (centres undefined),-11.9
21,Cc1nn(C)c(C)c1NC(=O)c1cccc(CN2CCS(=O)(=O)CC2)c1,-6.09
22,Cc1ccc(C(=O)N2C[C@@H]3CC[C@H](C2)N(CC2CCC2)C3)s1,7.49
23,CCNC(=O)[C@@H]1C[C@@H](N)CN1C(=O)c1cc2ccccc2[nH]1,-1.64

row,SMILES,cytotoxicity at 70.5 h [%]
1,OCC1(Cc2ccc(Cl)cc2)CCN(Cc2cccnc2)CC1,10.8
2,COCC(=O)N1CCCC1c1ccc(C(=O)NCc2ccccc2Cl)s1 (centres undefined),-11.5
3,CC(C)c1cc(C(=O)N[C@H]2CN(C3CCOCC3)C[C@@H]2C2CC2)no1,-6.62
4,COc1ccc(C(=O)N2CCOC(Cc3cccc(C(F)(F)F)c3)C2)o1 (centres undefined),-7.8
5,c1ccc(-c2ncn(CCCN3CCOCC3)c2-c2ccncc2)cc1,-6.69
6,CCN(CC)CCn1ccnc1-c1cccc(O)c1,1.22
7,Fc1cccc(-c2cccc(N3CCC(NC4CCCOC4)CC3)c2)c1 (centres undefined),33.8
8,Cc1cccc(N2CCN(CCC(=O)NCc3cnc(C)cn3)CC2)c1,23.9
9,COc1ccc(CN2CCCC2)cc1Oc1ccc2c(c1)CC(CN)O2 (centres undefined),-11.3
10,O=C(O)c1cccc(CC2CCN(c3ncc(F)cn3)CC2)c1,-9.85
11,CSc1nccc(NCC2CNCCO2)n1 (centres undefined),-5.51
12,Nc1cccc(-c2cccc3ccnn23)n1,-6.36
13,CNc1ccnc(N2C[C@@H]3CC[C@H](C2)N(CCOC)C3=O)n1,-8
14,CCCc1nc(C)cc(N2CCNC(C(=O)NC3CC3)C2)n1 (centres undefined),2.45
15,Cc1cccn2cc(C(=O)N3CCCN(CC4CC4)C(C(C)C)C3)nc12 (centres undefined),-8.2
16,N#Cc1cccnc1N1CCCC(CO)(Cc2cccc(Cl)c2)C1 (centres undefined),2.5
17,CN(C(=O)Cc1ccn(C)c1)C1CCCN(C2Cc3ccccc3C2)C1 (centres undefined),1.52
18,CC(CO)NCc1csc2c1CCCC2 (centres undefined),0.572
19,COc1ccccc1-n1nc(-c2ccco2)n(CC(N)=O)c1=O,-7.68
20,COCCN(Cc1sccc1C)C(=O)c1c(O)cccc1F,-5.43
21,Cc1ccc(CN2CCN(c3ncccc3Cl)CC2CCO)cc1 (centres undefined),-0.712
22,CC(C)c1cnc(N2C[C@H](CO)C[C@H](CN3CCOCC3)C2)nc1,-4.2
23,CCCN1CCCn2nc(CNS(=O)(=O)c3ccc(F)cc3)cc2C1,4.7

row,SMILES,cytotoxicity at 70.5 h [%]
1,Cc1cccc(C(C(=O)NC(C)(C)CN2CCOCC2)N(C)C)c1 (centres undefined),25.2
2,Cc1ccc2nccc(C(=O)N3CCOC(CCN(C)C)C3)c2c1 (centres undefined),15.6
3,O=S(=O)(c1ccc(-c2cnco2)cc1)N1CCCC(O)(CO)CC1 (centres undefined),12.5
4,O=C(c1ccc(C2CCCN2)s1)N1CC=CC1 (centres undefined),-6.78
5,Cc1nc(NCCSc2cnn[nH]2)c2c(C)noc2n1,7.78
6,Cc1nnc(CN2CCCC(CCc3ccccc3C(F)(F)F)C2)o1 (centres undefined),-7.48
7,Cc1cnccc1N1CCN(C(=O)CCCN2CCCCC2)CC1,-3.26
8,CC(C)N(C)C(=O)CN1C(=O)OC[C@@H]1c1ccccc1,0.286
9,COCC(=O)N1CCCC1c1ccc(C(=O)NCCN2CCCCC2)s1 (centres undefined),-10.2
10,CC(NC1CCCC1)c1ccccc1-n1cccn1 (centres undefined),-6.22
11,N#CC1(C(=O)N2C[C@H](Nc3ncccn3)[C@@H](C3CC3)C2)CCOCC1,-15.6
12,CSc1ccc(CNC(=O)C2CC(=O)N(C(C)(C)C)C2)cc1 (centres undefined),-3.39
13,O=C(c1cn(CC(=O)N2CCc3[nH]cnc3C2)c2ccccc12)C1CC1,-5.73
14,O=C(C1CCC1)N1CCc2[nH]cnc2C12CCN(C1CCOCC1)CC2,-0.358
15,O=C(Cc1cc2c(cc1Cl)OCCO2)N1CC[C@H](CO)[C@H](O)C1,-5.99
16,CC(C)[C@H]1CN(Cc2ccccn2)C[C@@H]1NC(=O)CCS(C)(=O)=O,-4.06
17,Cc1csc(CN2CCC(C(=O)O)(n3ccc(-c4ccco4)n3)CC2)n1,-7.21
18,Cc1cccc(-n2ncc3c2CCCC3NCc2cnn(C)c2C)c1C (centres undefined),3.5
19,Cn1c(=O)oc2ccc(NC(=O)N3CCOCC3)cc21,31.6
20,COc1cccc(-c2c[nH]c(C)n2)c1F,-11.2
21,O=C(CCn1ccc(=O)[nH]c1=O)N1CCC(OCc2cccnc2)CC1,27.2
22,CN1CCCN(C(=O)c2cc(CN(C)CCc3ccccc3)on2)CC1,-10.4
23,CN(C)c1ncnc2c1CCN(S(=O)(=O)c1cccc(Cl)c1Cl)C2,-4.66

row,SMILES,cytotoxicity at 70.5 h [%]
1,O=C1CCC2(CCN(Cc3cscn3)CC2)CN1CCCO,-8.82
2,Cc1cnc(C)c(N2CCC(c3nnc(CN(C)C)n3C3CC3)CC2)n1,11.2
3,CCN(Cc1nccn1C)C(=O)c1ccc(NCCc2c[nH]cn2)nc1,4.71
4,CCN(C)Cc1n[nH]c(=O)n1-c1cc(F)ccc1C,-5.83
5,O=C(Cn1nc2ccccc2n1)N1CCCC(O)(CN2CCCC2)C1 (centres undefined),13.9
6,CCOc1ccc(C(=O)CCC(=O)NCCc2nncn2CC)cc1C,22.5
7,COCCOC(=O)N1CCn2nc(CN(C)Cc3nccs3)cc2C1,13.8
8,Cc1cccc(C2CCCN(C(=O)CN3CCC(C(N)=O)CC3)C2)c1 (centres undefined),-4.32
9,COCCCN(C)C(=O)Cn1cccc(OC)c1=O,-10.6
10,CC1(C)CN(CC(=O)NCc2ccccc2F)C[C@]1(C)O,-9.16
11,O=C(c1ccco1)N1CCc2c(nc(-c3ccncc3)[nH]c2=O)C1,13
12,CN(C)CCC1CN(C(=O)c2cccc3c2OCC3)CCO1 (centres undefined),30
13,CC(C)[C@]1(O)CN(C(=O)COCC(N)=O)C[C@H]1C,23.2
14,O=c1c2cccc(F)c2ncn1CCN1CCNCC1,-2.04
15,Cc1c(Cl)c(C(=O)N2CC(c3cccnc3)C2)nn1C,-1.27
16,O=C(c1cncc(N2CCC3(CCCNC3)C2)n1)N1CCCC1 (centres undefined),-5.37
17,OCC1(CCOc2ccccc2)CCCN(c2ccc(Cl)cn2)C1 (centres undefined),-2.17
18,CN(C)c1nc2n(c(=O)n1)CCN2C(=O)Nc1ccccc1,-5.25
19,O=C(Nc1ccccc1C(=O)NCCCN1CCOCC1)c1ccco1,-6.18
20,CN(C(=O)c1ccc2c(c1)nc(N1CC[C@H](O)C1)n2C)C1CCSCC1,24.9
21,COc1ccc(Cl)cc1S(=O)(=O)N(C)CC(N)=O,-5
22,O=C(COc1cccnc1)N1CCOC(C(F)(F)F)C1 (centres undefined),-0.535
23,CC(=O)N1CCOC(CNC(=O)c2cccc(CCC(C)(C)O)c2)C1 (centres undefined),8.87

row,SMILES,cytotoxicity at 70.5 h [%]
1,COCc1ncc(CN2CC[C@@H](NC(=O)c3cccnc3)[C@H](O)C2)cn1,20.2
2,CC(C)(C)NC(=O)c1ccccc1NC(=O)c1ccncc1,-5.9
3,CCN(CC)CCn1ccnc1-c1[nH]cnc1C,3.84
4,COc1cccc(-c2noc3c2CN(c2nc(C)ncc2C)CC3)c1,-9.61
5,N[C@H]1CN(Cc2cnc(N3CCCC3)nc2)C[C@@H]1C1CC1,-5.36
6,COC(=O)c1ccc(OC)c(CN2CCN(CC(C)C)C(=O)C2C)c1 (centres undefined),26.8
7,CCCc1cc(CNC2CCN(c3nc4ccccc4s3)CC2)on1,-6.6
8,O=c1c2ccccc2ncn1Cc1cc(C2CC2)[nH]n1,13.8
9,CN(C)C(=O)C1CCCN1C(=O)c1ccc(Cn2ccnc2)o1 (centres undefined),10.3
10,CCn1c(CC2CCNCC2)nn(Cc2ccc(C(=O)NC)o2)c1=O,-11.7
11,CC1CN(S(=O)(=O)c2ccc(C(=O)NCC(F)F)cc2)CCCO1 (centres undefined),-0.0719
12,Cn1ncc(C2CC(=O)NCc3nc4sccn4c32)c1C1CC1 (centres undefined),-12.3
13,CCc1c(C)nc(C)nc1N1C[C@@H](CN(C)C)[C@@H](CO)C1,-1.15
14,CCCNS(=O)(=O)Cc1ccc(Br)cc1,-7.66
15,Cc1ccc2cc(CN(C)Cc3ccccn3)c(=O)[nH]c2c1,12.4
16,CCc1ccccc1-c1cc(OC)nc(N)n1,-8.45
17,CC(C)CC(O)C1CCN(C(=O)c2ccc(C(F)(F)F)nc2O)CC1 (centres undefined),-5.89
18,CCN(C)C(=O)c1cccc(S(=O)(=O)NCCc2nc(C)cc(=O)[nH]2)c1,-22.4
19,CC(C)[C@H]1CN(CCCO)C[C@@H]1NC(=O)CCC(F)(F)F,-7.33
20,CC(Cn1ccnc1)NC1CCN(Cc2cccc(O)c2)CC1 (centres undefined),-4.85
21,CCN(CC)C(CNCc1ccc(O)cc1)c1ccco1 (centres undefined),27
22,COc1cc(CNCC(C)O)cc(Cl)c1OCc1ccc(C)cc1 (centres undefined),39

# Source: ChEMBL document CHEMBL3507680, “University of Dundee, Gates Library screen for HepG2 cell viability”
